# Literature values in patent publication US20260022280A1, “LOW VOC SOLVENT CEMENT FORMULATION WITH REDUCED TOXICITY AND RAPID CURING” (Ashirvad Pipes Pvt Ltd, priority 2022, published 2026).
# Where two headings read alike, the source gives them in different places.
# Experiments:
# [1] = for ECHA Concern: Yes / No
# [2] = total solubility parameter
# [3] = test system: Rat; settings: in vivo
# [4] = test system: Rabbit
# [5] = test system: Rat; settings: 4 h
# [6] = solvents
# [7] = test system: Rat; settings: Rat male and female
# [8] = test system: Mouse; settings: 4 h
Structure (SMILES),ECHA Concern [1],Vapour Pressure (at 20° C.) [mm Hg],also measured
COC1CCCC1 [Cyclopentyl Methyl Ether],No,–,Vapour Pressure ((25° C.)): 44.92 mm Hg
CCC(=O)CC [Diethyl ketone],No,15,–
CCN1CCCCCC1=O [N-ethyl caprolactam],No,–,–
CC(=O)CC(C)=O [Acetylacetone],–,2.96,–
"CCOC(C)OCC [1,1 Diethoxy ethane]",Yes,20.25,–
COC(=O)OC [Dimethyl Carbonate],No,–,Vapour Pressure ((25° C.)): 55.5 mm Hg
CC(=O)CCC(C)C [Methyl iso amyl ketone],Yes,4.5,–
"O=C1CCCCC1 [CYH, Cyclohexanone]",No,3.75,SPo (Total) [2]: 9.6 (Cal/cm^3)^1/2; LD50 Oral [3]: 1544 mg/kg; LD50 Dermal [4]: 947 mg/kg; LD50 Inhalation ([5]; Rat): 8000 ppm
CO [Methanol],–,96.75,–
"CCCC(C)=O [MPK, Methyl Propyl Ketone]",No,12,Density [6]: 0.80 g/cc; SPo (Total) [2]: 9.6 (Cal/cm^3)^1/2; LD50 Oral [3]: > 16000 mg/kg; LD50 Dermal [7]: > 6480 mg/kg
"CCC(C)=O [MEK, Methyl Ethyl Ketone]",–,15,Density [6]: 0.80 g/cc; LC50 Inhalation [8]: 32.000 mg/m3
CC1CCCO1 (stereo not shown) [2-Methyl tetrahydrofuran],No,102,–
CC(=O)OC(C)(C)C [t-butyl acetate],No,–,Vapour Pressure ((25° C.)): 47.25 mm Hg
"C1COCO1 [1,3 Dioxolane]",–,–,LD50 ([3]; po): 5200 mg/kg
CCOC(C)=O [Ethyl acetate],No,75,–
O=C1CCCC1 [Cyclopentanone],No,11.4,–
COC(C)=O [N-methylacetate],Yes,173,–
COC(=O)CCCCC(=O)OC [Dimethyl adipate],No,0.06,–
CN(C)C=O [Dimethylformamide],–,3.67,–
CCCCCC(C)=O [Methyl amyl ketone],No,1.5,–
CCCCOC(C)=O [N-butyl acetate],No,–,–
CC(=O)C(C)C [Methyl iso propyl ketone],No,41.25,–
C[S+](C)[O-] [Dimethyl sulfoxide],No,0.44,–
O=C1CCCO1 [γ-Butyrolactone],No,1.12,–
CN1CCCC1=O [N-Methyl-2-Pyrrolidone],Yes,0.29,–
"CC(C)=O [ACE, Acetone]",No,180,Density [6]: 0.78 g/cc; SPo (Total) [2]: 9.8 (Cal/cm^3)^1/2
"C1CCOC1 [THF, Tetrahydrofuran]",Yes,145,"Density [6]: 0.88 g/cc; Vapour Pressure (at 20° C., listed as Tetrahydrofuran): 144.76 mm Hg; Hazard Classification & labelling ([1]; ECHA, harmonised classification / REACH registrations): suspected to be Carcinogenic; LC50 Inhalation ([5]; Rat male and female): 4 h −> 16.9 mg/l"
"CCOCCOCC [1,2 Diethoxy ethane]",Yes,9,–
CCO [Ethanol],Yes,43.5,–
